Source: patent publication US11040035B2, “3-oxo-2,6-diphenyl-2,3-dihydropyridazine-4-carboxamides” (BAYER PHARMA AKTIENGESELLSCHAFT, priority 2016, dated 2021)
Where two headings read alike, the source gives them in different places.

Tests used:
AHR [1] = biological target: T1, AHR (Homo sapiens, UniProt P35869); assay: In vitro assay 1: antagonism in human cell line (transactivation assay, kynurenic acid prestimulated); conditions: Assay 1: AHR-luc Hum Antagonism IC50 [M], 150 μM kynurenic acid, 20 hours, firefly luciferase
T1 sequence (P35869 11-848): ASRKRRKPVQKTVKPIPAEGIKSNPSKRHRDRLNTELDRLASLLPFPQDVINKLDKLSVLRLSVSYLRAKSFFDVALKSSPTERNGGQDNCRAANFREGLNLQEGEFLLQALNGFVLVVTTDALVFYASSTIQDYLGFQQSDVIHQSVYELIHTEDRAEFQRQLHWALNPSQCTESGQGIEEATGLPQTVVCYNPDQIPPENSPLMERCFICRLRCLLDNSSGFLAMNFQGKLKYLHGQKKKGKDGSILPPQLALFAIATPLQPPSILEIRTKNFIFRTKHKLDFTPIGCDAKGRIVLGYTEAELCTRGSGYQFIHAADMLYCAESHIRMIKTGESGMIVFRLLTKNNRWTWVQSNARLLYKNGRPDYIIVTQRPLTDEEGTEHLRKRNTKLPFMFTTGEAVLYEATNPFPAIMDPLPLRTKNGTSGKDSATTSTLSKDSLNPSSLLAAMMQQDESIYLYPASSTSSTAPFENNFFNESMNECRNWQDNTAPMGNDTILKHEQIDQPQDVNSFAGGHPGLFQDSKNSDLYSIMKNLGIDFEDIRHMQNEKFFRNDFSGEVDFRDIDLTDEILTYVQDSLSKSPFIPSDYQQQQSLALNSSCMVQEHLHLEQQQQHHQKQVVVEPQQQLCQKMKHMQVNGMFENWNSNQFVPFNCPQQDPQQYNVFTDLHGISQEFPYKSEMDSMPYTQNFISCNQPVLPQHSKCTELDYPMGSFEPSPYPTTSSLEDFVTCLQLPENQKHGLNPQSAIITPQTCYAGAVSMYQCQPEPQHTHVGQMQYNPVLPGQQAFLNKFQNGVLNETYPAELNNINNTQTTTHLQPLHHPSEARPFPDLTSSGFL
Experimental: Transactivation assays were carried out in U87 glioblastoma cells (ATCC) endogenously expressing AHR. In addition the cells were stably transfected with an AHR inducible firefly luciferase reporter gene construct that carried AHR-binding sites (DRE) in its promoter and a renilla reporter gene construct with constitutively active promoter. Kynurenic acid is an endogenous AHR activating ligand and was used to prestimulate test cells prior to testing the antagonistic properties of compounds.
In Vitro Assay 1: Antagonism in Human Cell Line
Cells in medium (tryptophan free RPMI, 1% FCS, 2 mM Glutamine) supplemented with 150 μM kynurenic acid were grown for 20 hours in absence (negative control) or presence of increasing concentrations of test compounds (typical dilutions: 72 pmol/L, 0.25 nmol/L, 0.89 nmol/L; 3.1 nmol/L, 11 nmol/L, 38 nmol/L, 130 nmol/L, 470 nmol/L, 1.6 μmol/L, 5.7 μmol/L and 20 μmol/L in duplicates). As positive inhibition control cells supplemented with 150 μM kynurenic acid were incubated in presence of 5 μM Staurosporin. Normalization was done by positive and negative controls.
Firefly luciferase and Renilla activity was determined by the DualGlo Luciferase Assay System (Promega, #2920).

AHR [2] = biological target: T1, AHR; assay: In vitro assay 2: agonism in human cell line (transactivation assay)
Experimental: Transactivation Assay in Human Cell Line (In Vitro Assays 1 and 2)
Transactivation assays were carried out in U87 glioblastoma cells (ATCC) endogenously expressing AHR. In addition the cells were stably transfected with an AHR inducible firefly luciferase reporter gene construct that carried AHR-binding sites (DRE) in its promoter and a renilla reporter gene construct with constitutively active promoter.
In Vitro Assay 2: Agonism in Human Cell Line
Cells in medium (tryptophan free RPMI, 1% FCS, 2 mM Glutamine) were grown for 20 hours in absence (negative control) or presence of increasing concentrations of test compounds (typical dilutions: 72 pmol/L, 0.25 nmol/L, 0.89 nmol/L; 3.1 nmol/L, 11 nmol/L, 38 nmol/L, 130 nmol/L, 470 nmol/L, 1.6 μmol/L, 5.7 μmol/L and 20 μmol/L in duplicates). As positive activation control cells were incubated with 300 μM kynurenic acid. Normalization was done by positive and negative controls.
Firefly luciferase activity was determined by the SteadyGlo Luciferase Assay System (Promega, #2520).

[3] = system: AHR-regulated gene CYP1A1; assay: In vitro assay 3: AHR-regulated CYP1A1 expression in human cell line (U937, qPCR)
Experimental: In Vitro Assay 3: AHR-Regulated CYP1A1 Expression in Human Cell Line
To assess the AHR inhibitory activity of the substances described in this application, the ability thereof to antagonise ligand-induced AHR gene regulation in a dose-dependent manner was quantified. For this purpose, quantitative PCR analysis was used to determine expression of the AHR-regulated gene CYP1A1 in a human monocytic U937 cell line upon stimulation with 200 μM KA in the presence and absence of AHR inhibitor. U937 cells were sown at a concentration of 2×10^5 cells/well in 100 ul of growth medium (RPMI 1640, 20% FCS) in 96-well microtitre plates. CYP1A1 expression was induced with 200 μM KA (positive control) in the presence or absence of the substances for 6 hours. Human U937 cells were typically incubated with eight different concentrations of the substances (1 nM, 3 nM, 10 nM, 30 nM, 100 nM, 300 nM, 1 μM and 3 μM) and analyzed in duplicate on the same microtitre plate. After stimulation, cells were lysed with Nucleic Acid Lysis Solution (#4305895, Applied Biosystems) and RNA was isolated using the 6100 Nucleic Acid Preparation Station (Applied Biosystems) and reverse-transcribed to cDNA using SuperScript VILO cDNA synthesis kit (#11754-250, Invitrogen). Unstimulated cells were used as the negative control. Taqman probes for human CYP1A1 (Hs01054797_g1) and human HPRT (Hs02800695_m1) were used to analyze fold expression of CYP1A1 of HPRT. Quantitation was performed on a Taqman SDS7900HT.

[4] = read-out: Assay 2: AHR-luc Hum Agonism IC50, no kynurenic acid, 20 hours, firefly luciferase
[5] = read-out: Assay 3: Hum CYP1A1 Antagonism IC50, U937 cells, 200 μM KA, 6 hours, qPCR
[6] = Homo sapiens, U-937, 6 h, read-out: Assay 3: Hum CYP1A1 Antagonism IC50 [M], U937 cells, 200 μM KA, 6 hours, qPCR
[7] = Assay 2: AHR-luc Hum Agonism IC50 [M], no kynurenic acid, 20 hours, firefly luciferase

| SMILES | IC50 (AHR [1]) [M] | IC50 (AHR [2]; [4]) [M] | IC50 [3, 5] [M] | IC50 [3, 6] [M] | IC50 (AHR [2]; [7]) [M] |
| --- | --- | --- | --- | --- | --- |
| O=C(NCC(O)C(F)F)c1cc(-c2ccc(C(F)(F)F)cc2)nn(-c2cccc(F)c2)c1=O (single isomer, unassigned; (+)) [Example 328, (+)-N-(3,3-difluoro-2-hydroxypropyl)-2-(3-fluorophenyl)-3-oxo-6-[4-(trifluoromethyl)phenyl]-2,3-dihydropyridazine-4-carboxamide] | 4.47e-08 | > 2e-05 | 9.53e-08 | – | – |
| O=C(NC(CO)C1CCC1)c1cc(-c2ccc(Cl)cc2)nn(-c2cccc(F)c2)c1=O (single isomer, unassigned; (-)) [Example 211, (−)-6-(4-Chlorophenyl)-N-(1-cyclobutyl-2-hydroxyethyl)-2-(3-fluorophenyl)-3-oxo-2,3-dihydropyridazine-4-carboxamide] | 1.66e-08 | > 2e-05 | – | 2.23e-08 | – |
| O=C(NCC(O)C(F)F)c1cc(-c2ccc(Cl)cc2)nn(-c2cccc(F)c2)c1=O (single isomer, unassigned; (-)) [Example 222, (−)-6-(4-Chlorophenyl)-N-(3,3-difluoro-2-hydroxypropyl)-2-(3-fluorophenyl)-3-oxo-2,3-dihydropyridazine-4-carboxamide] | 4.87e-08 | – | – | 9.14e-08 | > 2e-05 |
| CC(CCO)NC(=O)c1cc(-c2ccc(C(F)(F)F)cc2)nn(-c2cccc(F)c2)c1=O (single isomer, unassigned; (-)) [Example 255, (−)-2-(3-Fluorophenyl)-N-(4-hydroxybutan-2-yl)-3-oxo-6-[4-(trifluoromethyl)phenyl]-2,3-dihydropyridazine-4-carboxamide] | 1.09e-07 | > 2e-05 | 3.89e-07 | – | – |
| O=C(NCC(O)C(F)F)c1cc(-c2ccc(C(F)(F)F)cc2)nn(-c2cccc(F)c2)c1=O (single isomer, unassigned; (-)) [Example 327, (−)-N-(3,3-difluoro-2-hydroxypropyl)-2-(3-fluorophenyl)-3-oxo-6-[4-(trifluoromethyl)phenyl]-2,3-dihydropyridazine-4-carboxamide] | 1.66e-08 | – | 1.38e-08 | – | > 2e-05 |
| CC(C)(O)C(NC(=O)c1cc(-c2ccc(C(F)(F)F)cc2)nn(-c2cccc(F)c2)c1=O)C(F)(F)F (single isomer, unassigned; (-)) [Example 394, (−)-2-(3-fluorophenyl)-3-oxo-N-(1,1,1-trifluoro-3-hydroxy-3-methylbutan-2-yl)-6-[4-(trifluoromethyl)phenyl]-2,3-dihydropyridazine-4-carboxamide] | 2.8e-08 | – | – | 9.5e-08 | > 2e-05 |
| Cc1ccc(-c2cc(C(=O)NCC(O)C(C)C)c(=O)n(-c3cccc(F)c3)n2)cc1 (single isomer, unassigned; enantiomer 1) [Example 11, 2-(3-Fluorophenyl)-N-(2-hydroxy-3-methylbutyl)-6-(4-methylphenyl)-3-oxo-2,3-dihydropyridazine-4-carboxamide, enantiomer 1] | 7.94e-08 | – | – | 1.71e-07 | > 2e-05 |
| Cc1ccc(-c2cc(C(=O)N[C@H](CO)C(C)C)c(=O)n(-c3cccc(F)c3)n2)cc1 [Example 2, 2-(3-Fluorophenyl)-N-[(2S)-1-hydroxy-3-methylbutan-2-yl]-6-(4-methylphenyl)-3-oxo-2,3-dihydropyridazine-4-carboxamide] | 1.03e-08 | – | – | 1.36e-08 | > 2e-05 |
| CC(C)[C@@H](CO)NC(=O)c1cc(-c2ccc(Cl)cc2)nn(-c2cccc(F)c2)c1=O [Example 20, 6-(4-Chlorophenyl)-2-(3-fluorophenyl)-N-[(2S)-1-hydroxy-3-methylbutan-2-yl]-3-oxo-2,3-dihydropyridazine-4-carboxamide] | 1.18e-08 | – | – | 1.22e-08 | > 2e-05 |
| O=C(NCC(O)C(F)(F)F)c1cc(-c2ccc(Cl)cc2)nn(-c2cccc(F)c2)c1=O (stereo not drawn) [Example 25, 6-(4-Chlorophenyl)-2-(3-fluorophenyl)-3-oxo-N-(3,3,3-trifluoro-2-hydroxypropyl)-2,3-dihydropyridazine-4-carboxamide] | 3.75e-08 | – | – | 5.86e-08 | > 2e-05 |
| CC(C)C[C@@H](CO)NC(=O)c1cc(-c2ccc(Cl)cc2)nn(-c2cccc(F)c2)c1=O [Example 37, 6-(4-Chlorophenyl)-2-(3-fluorophenyl)-N-[(2S)-1-hydroxy-4-methylpentan-2-yl]-3-oxo-2,3-dihydropyridazine-4-carboxamide] | 1.31e-07 | – | – | 1.56e-07 | > 2e-05 |
| CC(C)[C@@H](CO)NC(=O)c1cc(-c2ccc(Cl)cc2)nn(-c2cc(F)cc(F)c2)c1=O [Example 43, 6-(4-Chlorophenyl)-2-(3,5-difluorophenyl)-N-[(2S)-1-hydroxy-3-methylbutan-2-yl]-3-oxo-2,3-dihydropyridazine-4-carboxamide] | 4.89e-09 | – | – | 1.08e-08 | > 2e-05 |
| C[C@@H](CO)NC(=O)c1cc(-c2ccc(Cl)cc2)nn(-c2cc(F)cc(F)c2)c1=O [Example 47, 6-(4-Chlorophenyl)-2-(3,5-difluorophenyl)-N-[(2S)-1-hydroxypropan-2-yl]-3-oxo-2,3-dihydropyridazine-4-carboxamide] | 3.08e-08 | – | – | 2.52e-08 | > 2e-05 |
| Cc1ccc(-c2cc(C(=O)N[C@H](CO)C(C)C)c(=O)n(-c3cc(F)cc(F)c3)n2)cc1 [Example 51, 2-(3,5-Difluorophenyl)-N-[(2S)-1-hydroxy-3-methylbutan-2-yl]-6-(4-methylphenyl)-3-oxo-2,3-dihydropyridazine-4-carboxamide] | 4.16e-09 | – | – | 1.15e-09 | > 2e-05 |
| Cc1ccc(-c2cc(C(=O)N[C@@H](C)CO)c(=O)n(-c3cc(F)cc(F)c3)n2)cc1 [Example 55, 2-(3,5-Difluorophenyl)-N-[(2S)-1-hydroxypropan-2-yl]-6-(4-methylphenyl)-3-oxo-2,3-dihydropyridazine-4-carboxamide] | 1.8e-08 | – | – | 1.54e-08 | > 2e-05 |
| O=C(NC(CO)C(F)(F)F)c1cc(-c2ccc(Cl)cc2)nn(-c2cccc(F)c2)c1=O (stereo not drawn) [Example 97, 6-(4-Chlorophenyl)-2-(3-fluorophenyl)-3-oxo-N-(1,1,1-trifluoro-3-hydroxypropan-2-yl)-2,3-dihydropyridazine-4-carboxamide] | 1.5e-08 | – | – | 1.63e-08 | > 2e-05 |
| O=C(N[C@H]1CCC[C@H]1O)c1cc(-c2ccc(Cl)cc2)nn(-c2cccc(F)c2)c1=O [Example 111, 6-(4-Chlorophenyl)-2-(3-fluorophenyl)-N-[(1S,2R)-2-hydroxycyclopentyl]-3-oxo-2,3-dihydropyridazine-4-carboxamide] | 2.03e-08 | – | – | 2.91e-08 | > 2e-05 |
| C[C@H](O)[C@H](C)NC(=O)c1cc(-c2ccc(Cl)cc2)nn(-c2cccc(F)c2)c1=O [Example 114, 6-(4-Chlorophenyl)-2-(3-fluorophenyl)-N-[(2S,3S)-3-hydroxybutan-2-yl]-3-oxo-2,3-dihydropyridazine-4-carboxamide] | 2.3e-08 | – | – | 5.27e-08 | > 2e-05 |
| O=C(N[C@H]1CCC[C@@H]1O)c1cc(-c2ccc(Cl)cc2)nn(-c2cccc(F)c2)c1=O [Example 115, 6-(4-Chlorophenyl)-2-(3-fluorophenyl)-N-[(1S,2S)-2-hydroxycyclopentyl]-3-oxo-2,3-dihydropyridazine-4-carboxamide] | 2.72e-08 | – | – | 1.31e-08 | > 2e-05 |
